Results: US20090062243A1, “Lupane-Type Triterpenoids Modified at 30-Position and Analogues Thereof” (ADVANCED LIFE SCIENCES, INC., priority 2007, published 2009)

Tests used:
Format in all cases: cell-based
SK-MEL-2 (melanoma) = test: MTS cell viability assay, SK-MEL-2
Protocol: (§1) Cells were plated, the evening before treatment, for each treatment on 96-well plates (1×10^4 cells/well) in 100 μL volume per well. Analog solutions were prepared by diluting each test compound in DSMO (10 mM) with the appropriate cell growth media for each individual cell line, or in “Universal Media” if several cell lines were to be assayed in parallel, immediately prior to cell treatment. Universal Media consisted of 5 mL sodium pyruvate (100× liquid stock, MediaTech), 5 mL glucose (100×, 45% liquid stock, MediaTech), 5 mL Penicillin/Streptomycin (100× liquid stock, MediaTech), 10 mL sodium bicarbonate (50× liquid stock, MediaTech), 25 mL Fetal Calf Serum, 1.25 mL insulin (4 mg/mL, Gibco) and […] RPMI media with 2 mM L-glutamine for a total volume of 500 mL.
(§2) Cells were treated by aspirating plating media from each well and adding 80 μL of betulinic acid (control) or each analog solution in serial dilutions to the adherent cells. All treatments were performed in triplicate. Growth media (80 μL) was added to 3 blank wells (no cells) to measure background from the growth media. Growth media alone (no DMSO or test compound) was added to 3 wells containing cells to measure the baseline MTS activity. Vehicle (DMSO) control in serial dilutions, added to cells, was also included to monitor basal toxicity from DMSO. Cells were incubated at 37° C. for 72 h, or 120 h for the OVCAR cell lines. MTS reagent (per 96-well plate) were prepared by combining 2 mL of MTS working solution (Cell Titer AQueous Non-Radioactive Cell Proliferation Assay, Promega, cat#G1112), 100 μL of 0.92 mg/mL phenazine methosulfate/Dulbecco's PBS and 2.1 mL growth media. MTS reagent (40 μL) were added to each well and incubated at 37° C. for 1.5 to 4 h. Plates were gently shaken by hand until solution in each well appeared homogenous. Absorbances at 490 nm were measured on a Wallac Victor II plate reader at multiple time points following the addition of MTS reagent for each plate. Triplicate absorbance (490 nm) measurements were averaged following background (no cell) subtraction for each drug concentration. Percent Cell Viability was calculated for each drug concentration using the following equation:
(§3) {[Absorbance(analog treated)]/[Absorbance(DMSO treated)]}×100%
(§4) Cytotoxicity dose response for the triterpenoid derivatives synthesized in SK-MEL-2 (melanoma), A-375 (melanoma), Daoy (glioblastoma), LN-229 (glioblastoma), OVCAR-3 (ovarian carcinoma), HT-29 (colon carcinoma), MCF-7 (breast carcinoma) cell lines using the standard MTS assay is summarized in Table 1. In Table 1, compounds 22a-d and compounds 23a-c refer to structures 22 and 23 in Scheme 5, respectively. Compounds 24aa-an and 24ba-bq refer to structure 24 in Scheme 6. Compounds 26a-e refer to structure 26 in Scheme 6. Compounds 36a-c refer to structure 36 in Scheme 10.

LN-229 (glioblastoma) = test: MTS cell viability assay, LN-229
Protocol: as §1, §2, §3, §4

MCF-7 (breast carcinoma) = test: MTS cell viability assay, MCF-7
Protocol: as §1, §2, §3, §4

HT-29 (colon carcinoma) = test: MTS cell viability assay, HT-29
Protocol: as §1, §2, §3, §4

Daoy = test: MTS cell viability assay, Daoy; details: cells incubated 72 h
Protocol: as §1, §2, §3, §4

[1] = tested on: OVCAR-3 (ovarian carcinoma); test: MTS cell viability assay, OVCAR-3; details: Homo sapiens, OVCAR-3, 120 h for the OVCAR cell lines
Protocol: as §1, §2, §3, §4

A-375 (melanoma) = test: MTS cell viability assay, A-375
Protocol: as §1, §2, §3, §4

[2] = Homo sapiens, SK-MEL-2, cells incubated 72 h
[3] = Homo sapiens, LN-229, cells incubated 72 h
[4] = Homo sapiens, MCF7, cells incubated 72 h
[5] = Homo sapiens, HT-29, cells incubated 72 h
[6] = Homo sapiens, A-375, cells incubated 72 h

Compound	IC50 (SK-MEL-2 (melanoma); [2]) [µM]	IC50 (LN-229 (glioblastoma); [3]) [µM]	IC50 (MCF-7 (breast carcinoma); [4]) [µM]	IC50 (HT-29 (colon carcinoma); [5]) [µM]	IC50 (Daoy; Homo sapiens, Daoy) [µM]	IC50 [1] [µM]	IC50 (A-375 (melanoma); [6]) [µM]	IC50 (SK-MEL-2 (melanoma); cells incubated 72 h) [µM]	IC50 (Daoy) [µM]	IC50 (LN-229 (glioblastoma); cells incubated 72 h) [µM]	IC50 (MCF-7 (breast carcinoma); cells incubated 72 h) [µM]	IC50 (HT-29 (colon carcinoma); cells incubated 72 h) [µM]	IC50 (A-375 (melanoma); cells incubated 72 h) [µM]
C=C(CO)[C@@H]1CC[C@]2(COC3CCCCO3)CC[C@]3(C)[C@H](CC[C@@H]4[C@@]5(C)CCC(=O)C(C)(C)[C@@H]5CC[C@]43C)[C@@H]12 (stereo partly shown) [Compound 5]	34	46	37	75	35	48	–	–	–	–	–	–	–
C=C(C=O)[C@@H]1CC[C@]2(COC3CCCCO3)CC[C@]3(C)[C@H](CC[C@@H]4[C@@]5(C)CCC(=O)C(C)(C)[C@@H]5CC[C@]43C)[C@@H]12 (stereo partly shown) [Compound 9a]	7	–	32	9	7	9	< 3	–	–	–	–	–	–
C=C(C=O)[C@@H]1CC[C@]2(CO)CC[C@]3(C)[C@H](CC[C@@H]4[C@@]5(C)CCC(=O)C(C)(C)[C@@H]5CC[C@]43C)[C@@H]12 [Compound 9b]	16	20	56	52	16	6	18	–	–	–	–	–	–
C=C(C(OC)OC)[C@@H]1CC[C@]2(CO)CC[C@]3(C)[C@H](CC[C@@H]4[C@@]5(C)CCC(=O)C(C)(C)[C@@H]5CC[C@]43C)[C@@H]12 [Compound 10]	17	24	17	15	17	45	7	–	–	–	–	–	–
C=C(C=O)[C@@H]1CC[C@]2(COC(C)=O)CC[C@]3(C)[C@H](CC[C@@H]4[C@@]5(C)CCC(=O)C(C)(C)[C@@H]5CC[C@]43C)[C@@H]12 [Compound 14a]	12	9	56	46	7	4	16	–	–	–	–	–	–
C=C(COS(C)(=O)=O)[C@@H]1CC[C@]2(CO)CC[C@]3(C)[C@H](CC[C@@H]4[C@@]5(C)CCC(=O)C(C)(C)[C@@H]5CC[C@]43C)[C@@H]12 [Compound 21b]	> 75	46	54	17	> 75	> 75	21	–	–	–	–	–	–
C=C(CNCCO)[C@@H]1CC[C@]2(CO)CC[C@]3(C)[C@H](CC[C@@H]4[C@@]5(C)CCC(=O)C(C)(C)[C@@H]5CC[C@]43C)[C@@H]12 [Compound 22b]	45	16	47	45	47	67	10	–	–	–	–	–	–
C=C(CNCCc1ccc(O)cc1)[C@@H]1CC[C@]2(COC3CCCCO3)CC[C@]3(C)[C@H](CC[C@@H]4[C@@]5(C)CCC(=O)C(C)(C)[C@@H]5CC[C@]43C)[C@@H]12 (stereo partly shown) [Compound 22c]	7	8	6	4	13	–	6	–	–	–	–	–	–
C=C(CO)[C@@H]1CC[C@]2(COC3CCCCO3)CC[C@]3(C)[C@H](CC[C@@H]4[C@@]5(C)CCC(N)C(C)(C)[C@@H]5CC[C@]43C)[C@@H]12 (stereo partly shown) [Compound 24aa]	5	4	6	12	4	15	0.89	–	–	–	–	–	–
C=C(CO)[C@@H]1CC[C@]2(COC3CCCCO3)CC[C@]3(C)[C@H](CC[C@@H]4[C@@]5(C)CCC(NC6CCC(O)CC6)C(C)(C)[C@@H]5CC[C@]43C)[C@@H]12 (stereo partly shown) [Compound 24ak]	–	–	–	–	–	–	–	38	38	–	–	–	–
C=C(CNCCO)[C@@H]1CC[C@]2(COC3CCCCO3)CC[C@]3(C)[C@H](CC[C@@H]4[C@@]5(C)CCC(N)C(C)(C)[C@@H]5CC[C@]43C)[C@@H]12 (stereo partly shown) [Compound 24ba]	5	15	3	2	5	–	3	–	–	–	–	–	–
C=C(CNCCO)[C@@H]1CC[C@]2(CO)CC[C@]3(C)[C@H](CC[C@@H]4[C@@]5(C)CCC(N)C(C)(C)[C@@H]5CC[C@]43C)[C@@H]12 (stereo partly shown) [Compound 24bb]	6	12	2	< 2	5	–	5	–	–	–	–	–	–
C=C(CNCCO)[C@@H]1CC[C@]2(CO)CC[C@]3(C)[C@H](CC[C@@H]4[C@@]5(C)CCC(NCCOC)C(C)(C)[C@@H]5CC[C@]43C)[C@@H]12 (stereo partly shown) [Compound 24bc]	–	–	–	–	–	–	–	8	5	28	11	2	4
C=C(CNCCO)[C@@H]1CC[C@]2(COC3CCCCO3)CC[C@]3(C)[C@H](CC[C@@H]4[C@@]5(C)CCC(NCC(=O)OC)C(C)(C)[C@@H]5CC[C@]43C)[C@@H]12 (stereo partly shown) [Compound 24bd]	–	–	–	–	–	–	–	16	16	–	–	–	–
C=C(CNCCO)[C@@H]1CC[C@]2(COC3CCCCO3)CC[C@]3(C)[C@H](CC[C@@H]4[C@@]5(C)CCC(NCCc6ccc(O)cc6)C(C)(C)[C@@H]5CC[C@]43C)[C@@H]12 (stereo partly shown) [Compound 24be]	–	–	–	–	–	–	–	2	0.5	18	5	< 2	< 2
C=C(CNCCO)[C@@H]1CC[C@]2(CO)CC[C@]3(C)[C@H](CC[C@@H]4[C@@]5(C)CCC(NCCc6ccc(O)cc6)C(C)(C)[C@@H]5CC[C@]43C)[C@@H]12 (stereo partly shown) [Compound 24bf]	–	–	–	–	–	–	–	5	1	14	4	< 2	2
C=C(CNCCO)[C@@H]1CC[C@]2(COC3CCCCO3)CC[C@]3(C)[C@H](CC[C@@H]4[C@@]5(C)CCC(NCCO)C(C)(C)[C@@H]5CC[C@]43C)[C@@H]12 (stereo partly shown) [Compound 24bg]	–	–	–	–	–	–	–	5	5	18	4	3	< 2
C=C(CNCCO)[C@@H]1CC[C@]2(CO)CC[C@]3(C)[C@H](CC[C@@H]4[C@@]5(C)CCC(NCCO)C(C)(C)[C@@H]5CC[C@]43C)[C@@H]12 (stereo partly shown) [Compound 24bh]	–	–	–	–	–	–	–	7	13	16	6	2	6
C=C(CNCCO)[C@@H]1CC[C@]2(COC3CCCCO3)CC[C@]3(C)[C@H](CC[C@@H]4[C@@]5(C)CCC(NC6CCC(O)CC6)C(C)(C)[C@@H]5CC[C@]43C)[C@@H]12 (stereo partly shown) [Compound 24bi]	–	–	–	–	–	–	–	5	5	–	–	–	–
C=C(CNCCO)[C@@H]1CC[C@]2(CO)CC[C@]3(C)[C@H](CC[C@@H]4[C@@]5(C)CCC(NC6CCC(O)CC6)C(C)(C)[C@@H]5CC[C@]43C)[C@@H]12 (stereo partly shown) [Compound 24bj]	–	–	–	–	–	–	–	5	5	16	4	2	7
C=C(CNCCc1ccc(O)cc1)[C@@H]1CC[C@]2(COC3CCCCO3)CC[C@]3(C)[C@H](CC[C@@H]4[C@@]5(C)CCC(N)C(C)(C)[C@@H]5CC[C@]43C)[C@@H]12 (stereo partly shown) [Compound 24bn]	5	–	–	–	2	–	–	–	–	–	–	–	–
C=C(CO)[C@@H]1CC[C@]2(COC3CCCCO3)CC[C@]3(C)[C@H](CC[C@@H]4[C@@]5(C)C=CC(=O)C(C)(C)[C@@H]5CC[C@]43C)[C@@H]12 (stereo partly shown) [Compound 28]	19	–	5	19	16	30	18	–	–	–	–	–	–
CC(CNCCO)[C@@H]1CC[C@]2(COC3CCCCO3)CC[C@]3(C)[C@H](CC[C@@H]4[C@@]5(C)CCC(O)C(C)(C)[C@@H]5CC[C@]43C)[C@@H]12 (stereo partly shown) [Compound 36a]	4	28	7	5	4	–	5	–	–	–	–	–	–
CC(CNCCO)[C@@H]1CC[C@]2(CO)CC[C@]3(C)[C@H](CC[C@@H]4[C@@]5(C)CCC(O)C(C)(C)[C@@H]5CC[C@]43C)[C@@H]12 (stereo partly shown) [Compound 36b]	16	–	–	–	54	–	–	–	–	–	–	–	–
